# Source: patent US10501426B1, “Synthesis of thiazole derivative as anticancer and anti-antibiotics resistant bacteria agent” (priority 2019, dated 2019)
# Key:
# Assay in all cases: Antibiotic susceptibility testing, Vitek System
# Assay type in all cases: cell-based, Staphylococcus epidermidis
# S. epidermidis S2 = system: S. epidermidis S2
# Method: (§1) Compound 6, synthesized as above, was evaluated as an antimicrobial agent against selected antibiotics resistant Staphylococcus epidermidis. The bacterial strains were obtained from Laboratory (2b56) of the Botany and Microbiology Department, College of Science, King Saud University, Riyadh. The bacterial strains were isolated from the skin of healthy students and identified by an automated antibiotic susceptibility testing system, Vitek System (BioMerieux, France).
# S. epidermidis S3 = system: S. epidermidis S3
# Method: as §1
# S. epidermidis S1 = system: S. epidermidis S1
# Method: as §1
# Note: key: S = susceptible; R = Resistant; I = intermediate.
Compound,susceptibility to standard antibiotics (S. epidermidis S2),susceptibility to standard antibiotics (S. epidermidis S3),susceptibility to standard antibiotics (S. epidermidis S1)
C[C@H]1COc2c(N3CCN(C)CC3)c(F)cc3c(=O)c(C(=O)O)cn1c23 [Levofloxacin],R,S,S
CCCCCCCCCC(=O)N[C@@H](Cc1c[nH]c2ccccc12)C(=O)N[C@H](CC(N)=O)C(=O)N[C@@H](CC(=O)O)C(=O)N[C@@H]1C(=O)NCC(=O)N[C@@H](CCCN)C(=O)N[C@@H](CC(=O)O)C(=O)N[C@H](C)C(=O)N[C@@H](CC(=O)O)C(=O)NCC(=O)N[C@H](CO)C(=O)N[C@@H]([C@H](C)CC(=O)O)C(=O)N[C@@H](CC(=O)c2ccccc2N)C(=O)O[C@@H]1C [Daptomycin],R,R,S
CC(=O)O[C@H]1C[C@@]2(C)[C@@H](C[C@@H](O)[C@H]3[C@@]4(C)CC[C@@H](O)[C@@H](C)[C@@H]4CC[C@@]32C)/C1=C(\CCC=C(C)C)C(=O)O [Fusidic Acid],R,R,S
CC(=O)NC[C@H]1CN(c2ccc(N3CCOCC3)c(F)c2)C(=O)O1 [Linezolid],R,R,S
Gentamicin,S,S,S
Cc1onc(-c2ccccc2)c1C(=O)N[C@@H]1C(=O)N2[C@@H]1SC(C)(C)[C@@H]2C(=O)O [Oxacillin],R,R,S
CCC[C@@H]1C[C@@H](C(=O)N[C@@H]([C@H]2O[C@H](SC)[C@H](O)[C@@H](O)[C@H]2O)[C@H](C)Cl)N(C)C1 [Clindamycin],R,R,S
CN(C)[C@@H]1C(O)=C(C(N)=O)C(=O)[C@@]2(O)C(O)=C3C(=O)c4c(O)cccc4[C@@](C)(O)[C@H]3C[C@@H]12 [Tetracycline],S,S,S
C[C@@H](O)[C@H]1C(=O)N2C(C(=O)O)=C(SCCN=CN)C[C@H]12 [Lmipenem],S,S,S
CN[C@H](CC(C)C)C(=O)N[C@H]1C(=O)N[C@@H](CC(N)=O)C(=O)N[C@H]2C(=O)N[C@H]3C(=O)N[C@H](C(=O)N[C@H](C(=O)O)c4cc(O)cc(O)c4-c4cc3ccc4O)[C@H](O)c3ccc(c(Cl)c3)Oc3cc2cc(c3O[C@@H]2O[C@H](CO)[C@@H](O)[C@H](O)[C@H]2O[C@H]2C[C@](C)(N)[C@H](O)[C@H](C)O2)Oc2ccc(cc2Cl)[C@H]1O [Vancomycin],R,S,S
CC[C@H]1OC(=O)[C@H](C)[C@@H](O[C@H]2C[C@@](C)(OC)[C@@H](O)[C@H](C)O2)[C@H](C)[C@@H](O[C@@H]2O[C@H](C)C[C@H](N(C)C)[C@H]2O)[C@](C)(O)C[C@@H](C)C(=O)[C@H](C)[C@@H](O)[C@]1(C)O [Erythromycin],R,R,R
O=C(O)c1cn(C2CC2)c2cc(N3CCNCC3)c(F)cc2c1=O [Ciprofloxacin],R,R,S
C/C(=C\C(=O)OCCCCCCCCC(=O)O)C[C@@H]1OC[C@H](C[C@@H]2O[C@H]2[C@@H](C)[C@H](C)O)[C@@H](O)[C@H]1O [Mupirocin],R,R,S
C[C@@H]1O[C@@H]1P(=O)(O)O [Fosfomycin],S,S,S
COc1c(N2C[C@@H]3CCCN[C@@H]3C2)c(F)cc2c(=O)c(C(=O)O)cn(C3CC3)c12 [Moxifloxacin],R,S,S
Teicoplanin,R,S,S
CO[C@H]1/C=C/O[C@@]2(C)Oc3c(C)c(O)c4c(O)c(c(/C=N/N5CCN(C)CC5)c(O)c4c3C2=O)NC(=O)/C(C)=C\C=C\[C@H](C)[C@H](O)[C@@H](C)[C@@H](O)[C@@H](C)[C@H](OC(C)=O)[C@@H]1C [Rifampin],R,R,S
